{"source": "paper PMC10334834", "about": "“A de novo dual-targeting supramolecular self-assembly peptide against pulmonary metastasis of melanoma” (Theranostics, 2023)", "key": {"B16F10 lung metastasis": {"system": "B16F10 lung metastasis", "assay": "Ex vivo fluorescence biodistribution in mice with pulmonary metastatic melanoma", "details": "Cy5-SE labelled, i.v. 200 μL (1 mg/mL), tumor-bearing C57BL/6 mice, organs at 12 h and 24 h"}, "B16F10 cells [1]": {"system": "B16F10 cells", "assay": "Scratch wound healing assay", "assay_type": "cell-based, mouse", "details": "60 μM, 24 h, 1% FBS; for migration rate: Image J, triplicate", "procedure": "(§1) As a next step, we tested the ability of supramolecular peptides to prevent tumor cell migration and invasion. […] Meanwhile, a scratch wound was harvested as part of the migration assay, and the healing process was observed. Based on a digital image, the areas of scratching without cells immediately following scratching and those of scratching without cells after the assay was calculated. […] We observed the same results in the transwell migration assay. Furthermore, tumor cells' invasive abilities play a critical role in metastasis. Using a transwell invasion assay (Figure 4G), we assessed the ability of HBB^plus@CA to inhibit tumor cell invasion.\n(§2) Scratch wound healing assay […]\n(§3) monolayer with a pipette tip (100 μL). The monolayer membrane was washed with PBS three times, […]\n(§4) Detection Kit (BD Falco, China). […]\n(§5) for 24 h at a concentration of 40 μM.\n(§6) FITC-labeled HBB, HBBplus, and […]\n(§7) it for 10 min. […] DAPI (Sigma-Aldrich,\n(§8) Finally, a super-resolution confocal microscope was used to observe the cell uptake situation."}, "B16F10 cells [2]": {"system": "B16F10 cells", "assay": "Cell apoptosis by flow cytometry (FITC Annexin V/PI)", "assay_type": "cell-based, mouse", "details": "40 μM, 24 h", "procedure": "as §2, §3, §4, §5, §6, §7, §8"}, "B16F10 cells [3]": {"system": "B16F10 cells", "assay": "Cell clone formation assay", "assay_type": "cell-based, mouse", "details": "7 days of drug treatment"}, "B16F10 cells [4]": {"system": "B16F10 cells", "assay": "Transwell migration and invasion assays", "assay_type": "cell-based, mouse", "details": "30 μM, 24h-48h", "procedure": "as §1\nperformed on a Talos F200X.\nThe hydrodynamic size distribution (1\nZetasizer Nano ZS system). The surface chemical structure of modified nanocrystals was evaluated\n(Shimadzu 3000 spectrophotometer). The structural identification of modified nanocrystals was\nand 100 μg/mL streptomycin.\nThe in vitro cell viability was measured\ncontaining 15% FBS medium for 24h -48h. Cells that migrated or invaded across the membrane"}, "p-ERK1/2": {"system": "p-ERK1/2", "assay": "Western blot, p-ERK1/2", "assay_type": "cell-based, mouse", "details": "B16F10 cells"}, "[5]": {"system": "B16F10 pulmonary metastasis of melanoma", "assay": "Lung metastasis model of melanoma", "assay_type": "in vivo", "details": "5×10^5 B16F10 cells i.v., 4 mg/kg every other day, six cycles, day 24, n = 5, mean ± s.d.; PBS group 94 ± 41"}, "[6]": {"assay": "Self-assembly into nanospheres observed by TEM", "assay_type": "physicochemical", "details": "peptide alone without CA", "excerpt": "The hydrophobic tails of HBB^plus interact and gather together, forming a hydrophobic core. At the same time, the hydrophilic head interacts with water molecules to wrap around the core, forming a stable micelle structure. The hydrophobic drug CA will be encapsulated in the hydrophobic area of the micelles during micellar assembly. CA is immobilized inside the micelles by interacting with the hydrophobic tails of the micelles (hydrophobic interactions and hydrogen bonding) (Figure 1D). We used the GROMACS 2018.3 software package and combined it with the MARTINI coarse-grained model (version 2.2) to conduct dynamics simulations on a system composed of 24× HBB^plus peptide molecules and 100× CA molecules in an aqueous solution during 5000 ns. […] To verify it, CA was mixed with HBB^plus in mass ratios ranging from 4:1 to 0.25:1. […] Furthermore, there was a strong positive correlation between the concentration of CA and particle size (Figure 1E). […]\nZetasizer Nano ZS system). The surface chemical structure of modified nanocrystals was evaluated […]\nThe in vitro cell viability was measured […]"}, "[7]": {"system": "Ki-67, β-catenin, np β-catenin, Cyclin D1, c-Myc, p-ERK1/2, N-cadherin, E-cadherin", "assay": "Immunohistochemistry of tumor-bearing lung sections", "details": "4 mg/kg, six cycles, score I × A, n = 5, control scored 8.3", "description": "All samples were assayed in triplicate.\nConstruct a lung metastasis model of melanoma\nThe lung metastasis model o f melanoma was constructed as follows: B16F10 cells (5 × 10^5 cells per\n100 µL) were transplanted into healthy C57BL/6 mice by intravenous injection at 5 -6 weeks of age.\nAfter 3 days, the mice were randomly divided into the PBS control group, CA group (4 mg/kg),\nHBBplus group (4 mg/kg), HBBplus@CA group (4 mg/ kg), HBBplus + CA group (4 mg/ kg) tail-vein\ninjected, every other day, summed six cycles. The experiment was terminated, and the mice were\neuthanized. For histological examination, the tumor, liver, k idney, heart, spleen , and lung tissues\nwere fixed with formaldehyde, dehydrated, sliced into 4 μm sections, and subjected to H&E or\nimmunohistochemical staining.\nH&E and immunohistochemistry (IHC) staining\nTumor-bearing lungs and primary organ tissues were dissected and immersed in formalin solution.\nThen they were paraffin-embedded, sectioned with a 4 μm thick. Nextly, the sections were stained\nwith hematoxylin-eosin (H&E) according to standard histopathological techniques. Besides, under\nconventional immunohistochemical staining, the expression of Ki -67 (Proteintech, USA; 1: 400),\nβ-catenin (Thermo Fisher, China; 1: 2000), np β-catenin (Cell Signaling Technology, USA; 1: 100), […]\n1: 500) in tumor-bearing lungs sections were detected. […]"}, "B16F10 cells [8]": {"system": "B16F10 cells", "assay": "Cell viability, Alamar blue", "description": "(§9) To explore the antitumor properties of HBB^plus@CA at the cellular level, we measured the viability of B16F10 cells after treatment with HBB^plus@CA.\n(§10) Mouse melanoma cell line B16F10, mouse macrophage cell line RAW 264.7, and human leukemic\n(§11) T-cell line Jurkat were obtained from the Chinese Academy of Science Cell Bank (Shanghai, China).\n(§12) B16F10 and RAW 264.7 cells were maintained in DMEM medium, Jurkat was cultured in RPMI-\n(§13) 1640 medium, and the above mediums were supplemented with 10% FBS, 100 U/mL penicillin,\n(§14) and 100 μg/mL streptomycin. All cells were maintained at 37°C in an atmosphere of 5% CO2.\n(§15) Melanoma cells B16F10 were inoculated uniformly in 96 empty plates according to 2000 cells.\n(§16) After 24 h, different gradient concentrations of HBB plus@CA or CA, HBB, or RGDSP-X were\n(§17) intervened at 37°C in an atmosphere of 5% CO 2 for 72 h. The in vitro cell viability was measured\n(§18) using a standard Alamar blue (Thermo Fisher Scientific, China) assay in the B16F10 cell s."}, "[9]": {"assay": "Acute toxicity test in vivo", "details": "healthy C57BL/6 mice; for body weight: every other day, six cycles"}, "B16F10 cells [10]": {"system": "B16F10 cells", "description": "as §9, §10, §11, §12, §13, §14, §15, §16, §17, §18"}, "[11]": {"system": "β-catenin, np-β-catenin, c-Myc", "assay": "Western blot, Wnt/β-catenin pathway proteins", "assay_type": "cell-based, mouse", "details": "B16F10 cells, 24 h"}}, "note": "“Also recorded” adds a separate entry of the source. Read-outs that look alike come from different tables or passages of the source."}
{"compound": "RGDSPENPRLLGNVLVCVLA [HBB^plus]", "values": [{"measurement": "tumor accumulation (biodistribution)", "setting": "B16F10 lung metastasis", "value": "superior tumor accumulation compared to HBB"}, {"measurement": "migration in scratch assay", "setting": "B16F10 cells [1]", "value": "inhibited the migration"}, {"measurement": "migration rate", "setting": "B16F10 cells [1]", "value": "~ 36%"}, {"measurement": "apoptosis of tumor cells", "setting": "B16F10 cells [2]", "value": "significantly effective in increasing the apoptosis"}, {"measurement": "clone formation", "setting": "B16F10 cells [3]", "value": "more potent antiproliferative activity"}, {"measurement": "transwell migration and invasion", "setting": "B16F10 cells [4]", "value": "inhibited the migration"}, {"measurement": "level of p-ERK1/2", "setting": "p-ERK1/2", "value": "reduced the level; also recorded: significantly down-regulated"}, {"measurement": "number of metastatic lung foci", "setting": "[5]", "value": "32 ± 12", "unit": "per lung"}, {"measurement": "self-assembly into nanospheres", "setting": "[6]", "value": "incapable of undergoing such a process"}, {"measurement": "Ki-67 expression score (IHC)", "setting": "[7]", "value": 6.2}, {"measurement": "cytotoxicity / antiproliferative activity", "setting": "B16F10 cells [8]; B16F10 cells, 72 h, Alamar blue", "value": "more potent antiproliferative activity"}]}
{"compound": "CC(C)c1cc2c(c(O)c1O)[C@@]1(C(=O)O)CCCC(C)(C)[C@@H]1CC2", "note": "[CA, carnosic acid]", "values": [{"measurement": "migration rate", "setting": "B16F10 cells [1]", "value": "~ 27%"}, {"measurement": "clone formation", "setting": "B16F10 cells [3]", "value": "significantly reduced the number of clones"}, {"measurement": "renal function tests (urea nitrogen, creatinine)", "setting": "[9]; 4-40 mg/kg", "value": "did not cause severe nephrotoxicity"}, {"measurement": "RBC, WBC, PLT, HGB, GRAN, Mon, Lymph in blood", "setting": "[9]; 4-40 mg/kg, n = 3/group, versus controls", "value": "neither HBB^plus@CA nor CA affected"}, {"measurement": "body weight", "setting": "[9]; 5× doses (20 mg/kg)", "value": "notable weight loss"}, {"measurement": "ALT and AST (liver function)", "setting": "[9]; 10× doses (40 mg/kg)", "value": "elevations of ALT and AST"}, {"measurement": "body weight", "setting": "[9]; 10× doses (40 mg/kg)", "value": "notable weight loss"}, {"measurement": "H&E staining of lung tissue", "setting": "[9]; low-dose and high-dose groups", "value": "inflammatory cell infiltration"}, {"measurement": "TNF-α, IFN-γ and EPO levels of peripheral blood", "setting": "[9]; up to high dose, ELISA, n = 3/group", "value": "did not significantly increase"}, {"measurement": "number of metastatic lung foci", "setting": "[5]", "value": "37 ± 10", "unit": "per lung"}, {"measurement": "cytotoxicity / antiproliferative activity", "setting": "B16F10 cells [10]", "value": "concentration-dependent cytotoxicity"}, {"measurement": "Ki-67 expression score (IHC)", "setting": "[7]", "value": 5.7}, {"measurement": "β-catenin, np-β-catenin and c-Myc protein expression", "setting": "[11]", "value": "significantly downregulated"}, {"measurement": "IC50", "setting": "B16F10 cells [8]; Mus musculus, B16-F10, 72 h, read-out: IC50 (cell viability)", "value": "29.2 ± 4.68", "unit": "µM"}]}
